Measured values taken from patent US10272095B2 (GlaxoSmithKline Intellectual Property Development Limited, priority 2015, dated 2019).
Structures can show the parent of a compound that is named as a salt.

Tested on: NQO1 specific enzyme activity in BEAS-2B cells
Test: BEAS-2B NQO1 MTT assay
Type: cell-based
Details: Homo sapiens, BEAS-2B, 48 h, NQO1 specific enzyme activity induction in BEAS-2B cells, 48 hours; read-out: EC50
From the text: NAD(P)H:quinone oxidoreductase 1 (NQO1), also called DT diaphorase, is a homodimeric FAD-containing enzyme that catalyzes obligatory NAD(P)H-dependent two-electron reductions of quinones and protects cells against the toxic and neoplastic effects of free radicals and reactive oxygen species arising from one-electron reductions. The transcription of NQO1 is finely regulated by NRF2, and thus NQO1 activity is a good marker for NRF2 activation. On day one, frozen BEAS-2B cells (ATCC) are thawed in a water bath, counted, and re-suspended at a concentration of 250,000 cells/mL. Fifty microliters of cells are plated in 384 well black clear-bottomed plates. Plates are incubated at 37° C., 5% CO2 overnight. On day two, plates are centrifuged and 50 nL of compound or controls are added to the cells. Plates are then incubated at 37° C., 5% CO2 for 48 hours. On day four, medium is aspirated from the plate and crude cell lysates are made by adding 13 uL of 1× Cell Signaling Technologies lysis buffer with 1 Complete, Mini, EDTA-free Protease Inhibitor Tablet (Roche) for each 10 mL of lysis buffer. After lysis plates are incubated for 20 minutes at room temperature. Two microliters of lysate are removed for use in Cell Titer Glo assay (Promega) and MTT cocktail is prepared (Prochaska et. al. 1998) for measurement of NQO1 activity. Fifty microliters of MTT cocktail is added to each well, plate is centrifuged, and analyzed on an Envision plate reader (Perkin Elmer) using Absorbance 570 nm label for 30 minutes. Product formation is measured kinetically and the pEC50 of NQO1 specific activity induction is calculated by plotting the change in absorbance (Delta OD/min) versus the log of compound concentration followed by 3-parameter fitting.
EC50s<1 nM (+++++), EC50s 10 nM-1 nM (++++), EC50s 10-100 nM (+++), EC50s 100 nM-1 uM (++), EC50s 1 uM-10 uM (+), EC50s>10 uM (−), or were not determined (ND).

Compound | EC50 [nM]
CCn1nnc(CCC(c2ccc3c(c2)C(N2Cc4ccccc4OC(C)(C)C2)CC3)C(C)(C)C(=O)O)n1 (stereo not shown) [Example 64, 3-(3-(2,2-dimethyl-2,3-dihydrobenzo[f][1,4]oxazepin-4(5H)-yl)-2,3-dihydro-1H-inden-5-yl)-5-(2-ethyl-2H-tetrazol-5-yl)-2,2-dimethylpentanoic Acid, Trifluoroacetic Acid Salt] | 10 to 100
COc1cc(C(CC(=O)O)c2ccc3c(c2)C(N2Cc4ccccc4OC(C)(C)C2)CC3)c(C)c2nnn(C)c12 (stereo not shown) [Example 29, 3-(3-(2,2-Dimethyl-2,3-dihydrobenzo[f][1,4]oxazepin-4(5H)-yl)-2,3-dihydro-1H-inden-5-yl)-3-(7-methoxy-1,4-dimethyl-1H-benzo[d][1,2,3]triazol-5-yl)propanoic Acid, Formic Acid Salt] | < 1
CC[C@@H]1CN([C@@H]2CCc3ccc(C(c4ccc5c(nnn5C)c4C)C(C)(C)C(=O)O)cc32)Cc2cnccc2O1 (relative stereo) [Example 75, rel-(S)-3-(1,4-Dimethyl-1H-benzo[d][1,2,3]triazol-5-yl)-3-(rel-(R)-3-((R)-2-ethyl-2,3-dihydropyrido[3,4-f][1,4]oxazepin-4(5H)-yl)-2,3-dihydro-1H-inden-5-yl)-2,2-dimethylpropanoic acid] | 10 to 100
Cc1c(C(CC(=O)O)c2ccc3c(c2)C(N2Cc4cc(C#N)ccc4OC(C)(C)C2)CC3)ccc2c1nnn2C (stereo not shown) [Example 28, 3-(3-(7-Cyano-2,2-dimethyl-2,3-dihydrobenzo[f][1,4]oxazepin-4(5H)-yl)-2,3-dihydro-1H-inden-5-yl)-3-(1,4-dimethyl-1H-benzo[d][1,2,3]triazol-5-yl)propanoic Acid, Formic Acid Salt] | < 1
Cc1cc(F)ccc1C(CC(=O)O)c1ccc2c(c1)C(N1Cc3cccnc3OC(C)(C)C1)CC2 (stereo not shown) [Example 60, 3-(3-(2,2-Dimethyl-2,3-dihydropyrido[3,2-f][1,4]oxazepin-4(5H)-yl)-2,3-dihydro-1H-inden-5-yl)-3-(4-fluoro-2-methylphenyl)propanoic Acid, Formic Acid Salt] | 100 to 1000
Cc1ccc2c(c1)OC(C)(C)CN(C1CCc3ccc(C(CC(=O)O)c4ccc5c(nnn5C)c4C)cc31)C2 (stereo not shown) [Example 24, 3-(1,4-Dimethyl-1H-benzo[d][1,2,3]triazol-5-yl)-3-(3-(2,2,8-trimethyl-2,3-dihydrobenzo[f][1,4]oxazepin-4(5H)-yl)-2,3-dihydro-1H-inden-5-yl)propanoic Acid, Formic Acid Salt] | 1 to 10
Cc1c(C(c2ccc3c(c2)C(N2CCOc4ccccc4C2)CC3)C(C)(C)C(=O)O)ccc2c1nnn2C (stereo not shown) [Example 38, 3-(3-(2,3-Dihydrobenzo[f][1,4]oxazepin-4(5H)-yl)-2,3-dihydro-1H-inden-5-yl)-3-(1,4-dimethyl-1H-benzo[d][1,2,3]triazol-5-yl)-2,2-dimethylpropanoic Acid, Formic Acid Salt] | 1 to 10
Cc1c([C@H](c2ccc3c(c2)[C@@H](N2Cc4ncccc4OC(C)(C)C2)CC3)C(C)(C)C(=O)O)ccc2c1nnn2C (racemic) [Example 68, rac-(R)-3-(1,4-Dimethyl-1H-benzo[d][1,2,3]triazol-5-yl)-3-(rac-(R)-3-(2,2-dimethyl-2,3-dihydropyrido[2,3-f][1,4]oxazepin-4(5H)-yl)-2,3-dihydro-1H-inden-5-yl)-2,2-dimethylpropanoic acid] | 10 to 100
Cc1c(C(CC(=O)O)c2ccc3c(c2)C(N2Cc4cccnc4OC(C)(C)C2)CC3)ccc2c1nnn2C (stereo not shown) [Example 51] | 10 to 100
Cc1c(C(CC(=O)O)c2ccc3c(c2)C2C(CC3)CC(=O)N2CC2CCCCC2)ccc2c1nnn2C (stereo not shown) [Example 19, 3-(1-(Cyclohexylmethyl)-2-oxo-2,3,3a,4,5,9b-hexahydro-1H-benzo[g]indol-8-yl)-3-(1,4-dimethyl-1H-benzo[d][1,2,3]triazol-5-yl)propanoic Acid] | 100 to 1000
Cc1c(C(CC(=O)O)c2ccc3c(c2)C2C(CCN2C(=O)CC2CCCCC2)C3)ccc2c1nnn2C (stereo not shown) [Example 7, 3-[1-(2-Cyclohexylacetyl)-1H,2H,3H,3aH,4H,8bH-indeno[1,2-b]pyrrol-7-yl]-3-(1,4-dimethyl-1H-1,2,3-benzotriazol-5-yl)propanoic Acid] | 1000 to 10000
Cc1c(C(c2ccc3c(c2)C(N2Cc4cccnc4OC(C)(C)C2)CC3)C(C)(C)C(=O)O)ccc2c1nnn2C (stereo not shown) [Example 34, 3-(1,4-Dimethyl-1H-benzo[d][1,2,3]triazol-5-yl)-3-(3-(2,2-dimethyl-2,3-dihydropyrido[3,2-f][1,4]oxazepin-4(5H)-yl)-2,3-dihydro-1H-inden-5-yl)-2,2-dimethylpropanoic acid, Formic Acid Salt] | 1 to 10
Cn1nnc2cc(C(CC(=O)O)c3ccc4c(c3)C(N3Cc5cccnc5OC(C)(C)C3)CC4)ncc21 (stereo not shown) [Example 62, 3-(3-(2,2-Dimethyl-2,3-dihydropyrido[3,2-f][1,4]oxazepin-4(5H)-yl)-2,3-dihydro-1H-inden-5-yl)-3-(3-methyl-3H-[1,2,3]triazolo[4,5-c]pyridin-6-yl)propanoic Acid, Formic Acid Salt] | 1000 to 10000
COc1cc(C(CC(=O)O)c2ccc3c(c2)C(N2Cc4ccccc4OC(C)(C)C2)CC3)cc2nnn(C)c12 (stereo not shown) [Example 43, 3-(3-(2,2-Dimethyl-2,3-dihydrobenzo[f][1,4]oxazepin-4(5H)-yl)-2,3-dihydro-1H-inden-5-yl)-3-(7-methoxy-1-methyl-1H-benzo[d][1,2,3]triazol-5-yl)propanoic Acid, Formate Salt] | 1 to 10
Cc1c(C(CC(=O)O)c2ccc3c(c2)C2C(CCN2C(=O)Cc2ccccc2C#N)C3)ccc2c1nnn2C (stereo not shown) [Example 12, 3-{1-[2-(2-Cyanophenyl)acetyl]-1H,2H,3H,3aH,4H,8bH-indeno[1,2-b]pyrrol-7-yl}-3-(1,4-dimethyl-1H-1,2,3-benzotriazol-5-yl)propanoic Acid] | 1000 to 10000
COc1cc(C(CC(=O)O)c2ccc3c(c2)C(N2Cc4cnccc4OC(C)(C)C2)CC3)c(C)c2nnn(C)c12 (stereo not shown) [Example 36, 3-(3-(2,2-Dimethyl-2,3-dihydropyrido[3,4-f][1,4]oxazepin-4(5H)-yl)-2,3-dihydro-1H-inden-5-yl)-3-(7-methoxy-1,4-dimethyl-1H-benzo[d][1,2,3]triazol-5-yl)propanoic Acid, Formic Acid Salt] | 1 to 10
COc1cc(C(CC(=O)O)c2ccc3c(c2)C2C(CCN2C(=O)OC(C)(C)C)C3)cc2nnn(C)c12 (stereo not shown) [Example 15, 3-{1-[(tert-Butoxy)carbonyl]-1H,2H,3H,3aH,4H,8bH-indeno[1,2-b]pyrrol-7-yl}-3-(7-methoxy-1-methyl-1H-1,2,3-benzotriazol-5-yl)propanoic Acid] | 100 to 1000
CC[C@@H]1CN(C2CCc3ccc(C(c4ccc5c(nnn5C)c4C)C(C)(C)C(=O)O)cc32)Cc2cnccc2O1 (stereo partly drawn) [Example 37, 3-(1,4-Dimethyl-1H-benzo[d][1,2,3]triazol-5-yl)-3-(3-((R)-2-ethyl-2,3-dihydropyrido[3,4-f][1,4]oxazepin-4(5H)-yl)-2,3-dihydro-1H-inden-5-yl)-2,2-dimethylpropanoic Acid, Formic Acid Salt] | 1 to 10
COc1cc(C(CC(=O)O)c2ccc3c(c2)C(N2CCOc4ccccc4C2)CC3)c(C)c2nnn(C)c12 (stereo not shown) [Example 52, 3-(3-(2,3-Dihydrobenzo[f][1,4]oxazepin-4(5H)-yl)-2,3-dihydro-1H-inden-5-yl)-3-(7-methoxy-1,4-dimethyl-1H-benzo[d][1,2,3]triazol-5-yl)propanoic Acid, Formic Acid Salt] | 10 to 100
CC[C@@H]1CN([C@H]2CCc3ccc([C@H](CC(=O)O)c4ccc5c(nnn5C)c4C)cc32)Cc2ccccc2O1 (relative stereo) [Example 81, rel-(S)-3-(1,4-Dimethyl-1H-benzo[d][1,2,3]triazol-5-yl)-3-(rel-(S)-3-((R)-2-ethyl-2,3-dihydrobenzo[f][1,4]oxazepin-4(5H)-yl)-2,3-dihydro-1H-inden-5-yl)propanoic Acid] | 10 to 100
Cc1c(C(CC(=O)O)c2ccc3c(c2)C2C(CCN2C(=O)CC(C)(C)C)C3)ccc2c1nnn2C (stereo not shown) [Example 13, 3-(1,4-Dimethyl-1H-1,2,3-benzotriazol-5-yl)-3-[1-(3,3-dimethylbutanoyl)-1H,2H,3H,3aH,4H,8bH-indeno[1,2-b]pyrrol-7-yl]propanoic Acid] | 1000 to 10000

Same assay, conditions: NQO1 specific enzyme activity induction in BEAS-2B cells, 48 hours; read-out: EC50

Compound | EC50 [nM]
CC[C@@H]1CN([C@H]2CCc3ccc([C@@H](c4ccc5c(nnn5C)c4C)C(C)(C)C(=O)O)cc32)Cc2cnccc2O1 (relative stereo) [Example 85, rel-(S)-3-(1,4-Dimethyl-1H-benzo[d][1,2,3]triazol-5-yl)-3-(rel-(S)-3-((R)-2-ethyl-2,3-dihydropyrido[3,4-f][1,4]oxazepin-4(5H)-yl)-2,3-dihydro-1H-inden-5-yl)-2,2-dimethylpropanoic Acid] | 10 to 100
